Measurements reported in the supplement of paper PMC10307832.

Legend:
Assay in all cases: relative viability (nuclei count vs DMSO), 5 days (fraction); higher = more cells survive
[1] = system: EPLC-272H
In short: (§1)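 Relative viability is defined as nuclei in treated wells over nuclei in vehicle wells. Duplicate plates were run and medians reported. Lung cancer cell lines in 1536-well plates were dosed by pin tool one day after seeding, with one drug or with a fixed anchor-drug dose plus five library-drug doses (not always all listed) in √10 steps, and nuclei were counted after 5 days.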

[2] = system: NCI-H2009
In short: as §1

[3] = system: LOU-NH91
In short: as §1

[4] = system: NCI-H2023
In short: as §1

[5] = system: EMC-BAC-2
In short: as §1

[6] = system: HOP-62
In short: as §1

[7] = system: NCI-H460
In short: as §1

[8] = system: NCI-H727
In short: as §1

[9] = system: NCI-H2170
In short: as §1

[10] = system: NCI-H23
In short: as §1

[11] = system: SW 1573
In short: as §1

[12] = system: NCI-H441
In short: as §1

[13] = system: ChaGo-K-1
In short: as §1

[14] = system: NCI-H650
In short: as §1

[15] = system: NCI-H2126
In short: as §1

[16] = system: NCI-H647
In short: as §1

[17] = system: NCI-H2347
In short: as §1

[18] = system: HCC-44
In short: as §1

[19] = system: NCI-H1437
In short: as §1

[20] = system: NCI-H1793
In short: as §1

[21] = system: NCI-H520
In short: as §1

[22] = system: LCLC-103H
In short: as §1

[23] = system: NCI-H2405
In short: as §1

Q: For `O=c1[nH]c2ccccc2n1C1CCN(CCCC(c2ccc(F)cc2)c2ccc(F)cc2)CC1` [Pimozide] + O=C(CCCCCCC(=O)Nc1ccccc1)NO [Vorinostat] (partner 1 µM), which relative viability ([1]; first compound 0.08 µM) is on record?
A: 0.402

Q: What about the relative viability ([1]; first compound 0.253 µM) of the same compound?
A: 0.453

Q: What about the relative viability ([1]; first compound 0.8 µM) of the same compound?
A: 0.417

Q: And the relative viability ([1]; first compound 2.53 µM)?
A: 0.418

Q: And the relative viability ([1]; first compound 8 µM)?
A: 0.307

Q: And the relative viability ([2]; first compound 0.08 µM)?
A: 0.639

Q: What about the relative viability ([2]; first compound 0.253 µM) of the same compound?
A: 0.764

Q: And the relative viability ([2]; first compound 0.8 µM)?
A: 0.651

Q: What about the relative viability ([2]; first compound 2.53 µM) of the same compound?
A: 0.698

Q: And the relative viability ([2]; first compound 8 µM)?
A: 0.694

Q: What about the relative viability ([3]; first compound 0.08 µM) of the same compound?
A: 0.741

Q: What about the relative viability ([3]; first compound 0.253 µM) of the same compound?
A: 0.883

Q: And the relative viability ([3]; first compound 0.8 µM)?
A: 0.852

Q: What about the relative viability ([3]; first compound 2.53 µM) of the same compound?
A: 0.98

Q: What about the relative viability ([3]; first compound 8 µM) of the same compound?
A: 0.872

Q: And the relative viability ([4]; first compound 0.08 µM)?
A: 0.583

Q: And the relative viability ([4]; first compound 0.253 µM)?
A: 0.747

Q: What about the relative viability ([4]; first compound 0.8 µM) of the same compound?
A: 0.353

Q: What about the relative viability ([4]; first compound 2.53 µM) of the same compound?
A: 0.547

Q: What about the relative viability ([4]; first compound 8 µM) of the same compound?
A: 0.484

Q: What about the relative viability ([5]; first compound 0.08 µM) of the same compound?
A: 0.433

Q: And the relative viability ([5]; first compound 0.253 µM)?
A: 0.45

Q: And the relative viability ([5]; first compound 0.8 µM)?
A: 0.384

Q: What about the relative viability ([5]; first compound 2.53 µM) of the same compound?
A: 0.451

Q: And the relative viability ([5]; first compound 8 µM)?
A: 0.456

Q: And the relative viability ([6]; first compound 0.08 µM)?
A: 0.704

Q: What about the relative viability ([6]; first compound 0.253 µM) of the same compound?
A: 0.642

Q: What about the relative viability ([6]; first compound 2.53 µM) of the same compound?
A: 0.494

Q: What about the relative viability ([6]; first compound 8 µM) of the same compound?
A: 0.416

Q: And the relative viability ([7]; first compound 0.08 µM)?
A: 0.727

Q: And the relative viability ([7]; first compound 0.253 µM)?
A: 0.654

Q: And the relative viability ([7]; first compound 0.8 µM)?
A: 0.711

Q: And the relative viability ([7]; first compound 2.53 µM)?
A: 0.681

Q: What about the relative viability ([7]; first compound 8 µM) of the same compound?
A: 0.664

Q: And the relative viability ([8]; first compound 0.08 µM)?
A: 1.2

Q: And the relative viability ([8]; first compound 0.253 µM)?
A: 1.13

Q: What about the relative viability ([8]; first compound 0.8 µM) of the same compound?
A: 1.11

Q: What about the relative viability ([8]; first compound 2.53 µM) of the same compound?
A: 1.15

Q: What about the relative viability ([8]; first compound 8 µM) of the same compound?
A: 1.17

Q: What about the relative viability ([9]; first compound 0.08 µM) of the same compound?
A: 0.717

Q: And the relative viability ([9]; first compound 0.253 µM)?
A: 0.848

Q: What about the relative viability ([9]; first compound 0.8 µM) of the same compound?
A: 0.808

Q: And the relative viability ([9]; first compound 2.53 µM)?
A: 0.793

Q: What about the relative viability ([9]; first compound 8 µM) of the same compound?
A: 0.771

Q: What about the relative viability ([10]; first compound 0.08 µM) of the same compound?
A: 0.573

Q: And the relative viability ([10]; first compound 0.253 µM)?
A: 0.551

Q: What about the relative viability ([10]; first compound 0.8 µM) of the same compound?
A: 0.49

Q: And the relative viability ([10]; first compound 2.53 µM)?
A: 0.575

Q: And the relative viability ([10]; first compound 8 µM)?
A: 0.52

Q: What about the relative viability ([11]; first compound 0.08 µM) of the same compound?
A: 0.83

Q: What about the relative viability ([11]; first compound 0.253 µM) of the same compound?
A: 0.63

Q: What about the relative viability ([11]; first compound 0.8 µM) of the same compound?
A: 0.579

Q: What about the relative viability ([11]; first compound 2.53 µM) of the same compound?
A: 0.323

Q: And the relative viability ([11]; first compound 8 µM)?
A: 0.33

Q: And the relative viability ([12]; first compound 0.08 µM)?
A: 0.699

Q: And the relative viability ([12]; first compound 0.253 µM)?
A: 0.657

Q: And the relative viability ([12]; first compound 0.8 µM)?
A: 0.74

Q: What about the relative viability ([12]; first compound 2.53 µM) of the same compound?
A: 0.857

Q: What about the relative viability ([12]; first compound 8 µM) of the same compound?
A: 0.687

Q: What about the relative viability ([13]; first compound 0.08 µM) of the same compound?
A: 0.726

Q: And the relative viability ([13]; first compound 0.253 µM)?
A: 0.668

Q: What about the relative viability ([13]; first compound 0.8 µM) of the same compound?
A: 0.794

Q: What about the relative viability ([13]; first compound 2.53 µM) of the same compound?
A: 0.841

Q: And the relative viability ([13]; first compound 8 µM)?
A: 0.758

Q: And the relative viability ([14]; first compound 0.08 µM)?
A: 0.455

Q: What about the relative viability ([14]; first compound 0.253 µM) of the same compound?
A: 0.386

Q: And the relative viability ([14]; first compound 0.8 µM)?
A: 0.399

Q: What about the relative viability ([14]; first compound 2.53 µM) of the same compound?
A: 0.454

Q: What about the relative viability ([14]; first compound 8 µM) of the same compound?
A: 0.452

Q: And the relative viability ([15]; first compound 0.08 µM)?
A: 0.704

Q: And the relative viability ([15]; first compound 0.253 µM)?
A: 0.818

Q: And the relative viability ([15]; first compound 0.8 µM)?
A: 0.782

Q: What about the relative viability ([15]; first compound 2.53 µM) of the same compound?
A: 0.785

Q: What about the relative viability ([15]; first compound 8 µM) of the same compound?
A: 0.868

Q: What about the relative viability ([16]; first compound 0.08 µM) of the same compound?
A: 0.5

Q: What about the relative viability ([16]; first compound 0.253 µM) of the same compound?
A: 0.577

Q: And the relative viability ([16]; first compound 0.8 µM)?
A: 0.621

Q: What about the relative viability ([16]; first compound 2.53 µM) of the same compound?
A: 0.268

Q: What about the relative viability ([16]; first compound 8 µM) of the same compound?
A: 0.431

Q: And the relative viability ([17]; first compound 0.08 µM)?
A: 0.685

Q: What about the relative viability ([17]; first compound 0.253 µM) of the same compound?
A: 0.594

Q: What about the relative viability ([17]; first compound 0.8 µM) of the same compound?
A: 0.537

Q: And the relative viability ([17]; first compound 2.53 µM)?
A: 0.537

Q: What about the relative viability ([17]; first compound 8 µM) of the same compound?
A: 0.492

Q: What about the relative viability ([18]; first compound 0.08 µM) of the same compound?
A: 1.12

Q: What about the relative viability ([18]; first compound 0.253 µM) of the same compound?
A: 1.12

Q: What about the relative viability ([18]; first compound 0.8 µM) of the same compound?
A: 0.923

Q: What about the relative viability ([18]; first compound 2.53 µM) of the same compound?
A: 1.12

Q: And the relative viability ([18]; first compound 8 µM)?
A: 0.975

Q: What about the relative viability ([19]; first compound 0.08 µM) of the same compound?
A: 0.786

Q: And the relative viability ([19]; first compound 0.253 µM)?
A: 0.763

Q: And the relative viability ([19]; first compound 0.8 µM)?
A: 0.767

Q: What about the relative viability ([19]; first compound 2.53 µM) of the same compound?
A: 0.67

Q: What about the relative viability ([19]; first compound 8 µM) of the same compound?
A: 0.405

Q: What about the relative viability ([20]; first compound 0.08 µM) of the same compound?
A: 0.642

Q: And the relative viability ([20]; first compound 0.253 µM)?
A: 0.761

Q: And the relative viability ([20]; first compound 0.8 µM)?
A: 0.693

Q: What about the relative viability ([20]; first compound 2.53 µM) of the same compound?
A: 0.761

Q: And the relative viability ([20]; first compound 8 µM)?
A: 0.624

Q: What about the relative viability ([21]; first compound 0.08 µM) of the same compound?
A: 0.727

Q: What about the relative viability ([21]; first compound 0.253 µM) of the same compound?
A: 0.663

Q: And the relative viability ([21]; first compound 0.8 µM)?
A: 0.671

Q: And the relative viability ([21]; first compound 2.53 µM)?
A: 0.685

Q: What about the relative viability ([21]; first compound 8 µM) of the same compound?
A: 0.65

Q: What about the relative viability ([22]; first compound 0.08 µM) of the same compound?
A: 0.814

Q: What about the relative viability ([22]; first compound 0.253 µM) of the same compound?
A: 0.802

Q: And the relative viability ([22]; first compound 0.8 µM)?
A: 0.598

Q: What about the relative viability ([22]; first compound 2.53 µM) of the same compound?
A: 0.759

Q: And the relative viability ([22]; first compound 8 µM)?
A: 0.717

Q: And the relative viability ([23]; first compound 0.08 µM)?
A: 1.01

Q: What about the relative viability ([23]; first compound 0.253 µM) of the same compound?
A: 0.964

Q: And the relative viability ([23]; first compound 0.8 µM)?
A: 0.955

Q: What about the relative viability ([23]; first compound 2.53 µM) of the same compound?
A: 1.01

Q: And the relative viability ([23]; first compound 8 µM)?
A: 0.791
